# Biological target: T1, glutathione S-transferase (GST)-linked full-length human Syk protein (Homo sapiens, UniProt P43405)
# T1 construct: glutathione S-transferase (GST)-linked full-length human Syk protein; purchased Carna Biosciences; host or cells: Baculovirus expression system
# Assay: Syk enzyme assay
# Format: biochemical
# Details: 0.83 nM Syk, time-resolved fluorescence; read-out: IC50 of Syk-inhibitory activity
# Method: A glutathione S-transferase (GST)-linked full-length human Syk protein (Carna Biosciences), which had been generated using a Baculovirus expression system, was used in the Syk enzyme assay.
# 7.5 μl of a reaction solution (0.83 nM Syk, 20 mM HEPES, 10 mM MgCl2, 50 mM NaCl, 2 mM DTT, 0.05% BSA, pH 7.0) containing a Syk protein and a predetermined concentration of a test compound was shaken for 2 minutes, and it was then left at rest at room temperature for 13 minutes. Thereafter, 0.5 μM substrate peptide (Biotin-[…]-NH2) and 5 μL of a solution containing 67.5 μM ATP were added to the reaction solution, and the obtained mixture was then shaken for 2 minutes. The reaction solution was further left at rest at room temperature for 40 minutes, so as to carry out an enzyme reaction.
# Thereafter, 50 μL of a reaction termination solution [60 nM APC-SA, 0.45 μg/mL Eu-PT66, 30 mM HEPES (pH 7.0), 150 mM KF, 30 mM EDTA, 0.15% BSA, 0.075% Tween20] containing Allophycocyanin-Streptavidin (APC-SA; PerkinElmer) and an Eu-W1024-labeled anti-phosphotyrosine PT66 antibody (Eu-PT66; PerkinElmer) was added to the reaction solution to terminate the enzyme reaction. At the same time, the reaction solution was left at rest at room temperature for 1 hour, so as to carry out an antigen-antibody reaction. Thereafter, using EnVision (PerkinElmer), the level of time-resolved fluorescence was measured at 615 nm and 665 nm, so that the phosphorylation of the substrate peptide was measured.
# The following are used in Table 5 to denote standards for evaluating IC50 of Syk-inhibitory activity. • A: Up to 10 nM • B: 10 to 50 nM • C: 50 to 100 nM
row,IC50 [nM],Structure (SMILES)
1,< 10,"CCOc1ncc(Nc2nc(N[C@H](CC(C)C)[C@H](C)N)c(F)cc2C(N)=O)cc1-n1ccnn1 [Example 2-199, 6-(((2S,3R)-2-amino-5-methylhexan-3-yl)amino)-2-((6-ethoxy-5-(1H-1,2,3-triazol-1-yl)pyridin-3-yl)amino)-5-fluoronicotinamide]"
2,10 to 50,"CC(C)C[C@H](CN)Nc1nc(Nc2cnc(N3CCOCC3)c(F)c2)c(C(N)=O)cc1F [Example 2-261, (R)-6-((1-amino-4-methylpentan-2-yl)amino)-5-fluoro-2-((5-fluoro-6-morpholinopyridin-3-yl)amino)nicotinamide]"
3,50 to 100,"CC[C@@H](Nc1nc(Nc2cnc(OCCOC)c(-n3nccn3)c2)c(C(N)=O)cc1F)[C@H](C)N [Example 2-202, 6-(((2S,3R)-2-aminopentan-3-yl)amino)-5-fluoro-2-((6-(2-methoxyethoxy)-5-(2H-1,2,3-triazol-2-yl)pyridin-3-yl)amino)nicotinamide]"
4,10 to 50,"CC[C@@H](Nc1nc(Nc2ccc3[nH]nc(NC)c3c2)c(C(N)=O)cc1F)[C@H](C)N [Example 2-489, 6-(((2S,3R)-2-aminopentan-3-yl)amino)-5-fluoro-2-((3-(methylamino)-1H-indazol-5-yl)amino)nicotinamide]"
5,10 to 50,"C[C@H](N)[C@H](Nc1nc(Nc2ccc3c(c2)c(N(C)C)nn3C)c(C(N)=O)cc1F)c1ccccc1 [Example 2-315, 6-(((1R,2S)-2-amino-1-phenylpropyl)amino)-2-((3-(dimethylamino)-1-methyl-1H-indazol-5-yl)amino)-5-fluoronicotinamide]"
6,50 to 100,"CC[C@H](N)[C@@H](C)Nc1nc(Nc2cnc3c(c2)c(OC)nn3C)c(C(N)=O)cc1F [Example 2-257, 6-(((2R,3S)-3-aminopentan-2-yl)amino)-5-fluoro-2-((3-methoxy-1-methyl-1H-pyrazolo[3,4-b]pyridin-5-yl)amino)nicotinamide]"
7,50 to 100,"CC[C@@H](Nc1nc(Nc2cnc(OCCOC)c(F)c2)c(C(N)=O)cc1F)[C@H](C)N [Example 2-117, 6-(((2S,3R)-2-aminopentan-3-yl)amino)-5-fluoro-2-((5-fluoro-6-(2-methoxyethoxy)pyridin-3-yl)amino)nicotinamide]"
8,10 to 50,"CC[C@@H](Nc1nc(Nc2ccc3c(c2)c(NCCOC)nn3CCOC)c(C(N)=O)cc1F)[C@H](C)N [Example 2-536, 6-(((2S,3R)-2-aminopentan-3-yl)amino)-5-fluoro-2-((1-(2-methoxyethyl)-3-((2-methoxyethyl)amino)-1H-indazol-5-yl)amino)nicotinamide]"
9,10 to 50,"COc1ncc(Nc2nc(N[C@@H]3CCCC[C@@H]3N)c(F)cc2C(N)=O)c2cnn(C)c12 [Example 2-407, 6-(((1R,2S)-2-aminocyclohexyl)amino)-5-fluoro-2-((7-methoxy-1-methyl-1H-pyrazolo[3,4-c]pyridin-4-yl)amino)nicotinamide]"
10,< 10,"COc1nn(C)c2c(F)cc(Nc3nc(N[C@H](CC(C)C)[C@H](C)N)c(F)cc3C(N)=O)cc12 [Example 2-156, 6-(((2S,3R)-2-amino-5-methylhexan-3-yl)amino)-5-fluoro-2-((7-fluoro-3-methoxy-1-methyl-1H-indazol-5-yl)amino)nicotinamide]"
11,10 to 50,"CC[C@@H](Nc1nc(Nc2cnc3c(c2)c(C)nn3C)c(C(N)=O)cc1F)[C@H](C)N [Example 2-241, 6-(((2S,3R)-2-aminopentan-3-yl)amino)-2-((1,3-dimethyl-1H-pyrazolo[3,4-b]pyridin-5-yl)amino)-5-fluoronicotinamide]"
12,10 to 50,"COCCn1nc(N(C)C)c2cc(Nc3nc(N[C@@H]4CCOC[C@@H]4N)c(F)cc3C(N)=O)ccc21 [Example 2-501, 6-(((3R,4R)-3-aminotetrahydro-2H-pyran-4-yl)amino)-2-((3-(dimethylamino)-1-(2-methoxyethyl)-1H-indazol-5-yl)amino)-5-fluoronicotinamide]"
13,< 10,"CC(C)C[C@H](CN)Nc1nc(Nc2ccc3c(c2)c(N(C)C)nn3C)c(C(N)=O)cc1F [Example 2-86, (R)-6-((1-amino-4-methylpentan-2-yl)amino)-2-((3-(dimethylamino)-1-methyl-1H-indazol-5-yl)amino)-5-fluoronicotinamide]"
14,10 to 50,"Cn1nc(N2CCCC2=O)c2cc(Nc3nc(N[C@@H]4CCCC[C@@H]4N)c(F)cc3C(N)=O)ccc21 [Example 2-431, 6-(((1R,2S)-2-aminocyclohexyl)amino)-5-fluoro-2-((1-methyl-3-(2-oxopyrrolidin-1-yl)-1H-indazol-5-yl)amino)nicotinamide]"
15,< 10,"CC[C@@H](Nc1nc(Nc2ccc3c(c2)c(N2CCCC2)nn3C)c(C(N)=O)cc1F)[C@H](C)N [Example 2-429, 6-(((2S,3R)-2-aminopentan-3-yl)amino)-5-fluoro-2-((1-methyl-3-(pyrrolidin-1-yl)-1H-indazol-5-yl)amino)nicotinamide]"
16,50 to 100,"Cc1nn(-c2cncc(Nc3nc(N[C@H](C4CC4)[C@H](C)N)c(F)cc3C(N)=O)c2)nc1C [Example 2-534, 6-(((1R,2S)-2-amino-1-cyclopropylpropyl)amino)-2-((5-(4,5-dimethyl-2H-1,2,3-triazol-2-yl)pyridin-3-yl)amino)-5-fluoronicotinamide]"
17,< 10,"CC(C)C[C@H](CN)Nc1nc(Nc2ccc3c(c2)c(OC(F)F)nn3C)c(C(N)=O)cc1F [Example 2-541, (R)-6-((1-amino-4-methylpentan-2-yl)amino)-2-((3-(difluoromethoxy)-1-methyl-1H-indazol-5-yl)amino)-5-fluoronicotinamide]"
18,< 10,"COCCn1nc(OC(F)F)c2cc(Nc3nc(N[C@H](C4CC4)[C@H](C)N)c(F)cc3C(N)=O)ccc21 [Example 2-176, 6-(((1R,2S)-2-amino-1-cyclopropylpropyl)amino)-2-((3-(difluoromethoxy)-1-(2-methoxyethyl)-1H-indazol-5-yl)amino)-5-fluoronicotinamide]"
19,10 to 50,"Cc1ncc(Nc2nc(N[C@H](c3ccc(C(F)(F)F)cc3)[C@H](C)N)c(F)cc2C(N)=O)cc1-n1nccn1 [Example 2-354, 6-(((1R,2S)-2-amino-1-(4-(trifluoromethyl)phenyl)propyl)amino)-5-fluoro-2-((6-methyl-5-(2H-1,2,3-triazol-2-yl)pyridin-3-yl)amino)nicotinamide]"
20,10 to 50,"CN(C)c1nn(C)c2ncc(Nc3nc(N[C@@H]4CCOC[C@@H]4N)c(F)cc3C(N)=O)cc12 [Example 2-335, 6-(((3R,4R)-3-aminotetrahydro-2H-pyran-4-yl)amino)-2-((3-(dimethylamino)-1-methyl-1H-pyrazolo[3,4-b]pyridin-5-yl)amino)-5-fluoronicotinamide]"
21,< 10,"CCn1ncc2c(Nc3nc(N[C@@H]4CCCC[C@@H]4N)c(F)cc3C(N)=O)cc(F)cc21 [Example 2-369, 6-(((1R,2S)-2-aminocyclohexyl)amino)-2-((1-ethyl-6-fluoro-1H-indazol-4-yl)amino)-5-fluoronicotinamide]"
22,50 to 100,"CC[C@@H](Nc1nc(Nc2ccc3c(c2)c(NC)nn3C)c(C(N)=O)cc1F)[C@H](C)N [Example 2-497, 6-(((2S,3R)-2-aminopentan-3-yl)amino)-5-fluoro-2-((1-methyl-3-(methylamino)-1H-indazol-5-yl)amino)nicotinamide]"

# — patent publication US9051310B2, “Nicotinamide derivative or salt thereof” (FUJIFILM Corporation, priority 2011, dated 2015)
